Consider 4 compounds from PMC7026418, “The kinase polypharmacology landscape of clinical PARP inhibitors” (Scientific Reports, 2020).

Like-named read-outs stand apart in the source and are kept apart here.

Targets include FER (Homo sapiens, UniProt P16591); MYLK (Homo sapiens, UniProt Q15746); PIK3CA (Homo sapiens, UniProt P42336); CHEK2 (Homo sapiens, UniProt O96017); MKNK1 (Homo sapiens, UniProt Q9BUB5).
Holding throughout (experiment): biochemical
Common to all, as to parameters: DiscoveRx KINOMEscan active site-directed competition binding; percent of control kinase bound to immobilised ligand

Another experiment addresses T1, SGK2 (Homo sapiens, UniProt Q9HBY8).
T1 sequence (Q9HBY8 1-367): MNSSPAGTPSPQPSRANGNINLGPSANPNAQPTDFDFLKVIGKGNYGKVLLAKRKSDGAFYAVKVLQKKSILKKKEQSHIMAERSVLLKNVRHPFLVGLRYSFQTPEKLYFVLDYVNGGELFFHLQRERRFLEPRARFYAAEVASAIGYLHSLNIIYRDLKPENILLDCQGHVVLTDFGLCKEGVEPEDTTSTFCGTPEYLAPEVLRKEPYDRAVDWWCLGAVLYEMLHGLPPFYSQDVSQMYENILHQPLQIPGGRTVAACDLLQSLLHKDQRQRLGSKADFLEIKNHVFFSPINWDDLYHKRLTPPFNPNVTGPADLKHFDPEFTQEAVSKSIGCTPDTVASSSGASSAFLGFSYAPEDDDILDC

For the next experiment, the target named is T2, TRKC (Homo sapiens, UniProt Q16288).
T2 construct: gene NTRK3

In another experiment the target is T3, PCTK2 (Homo sapiens, UniProt Q00537).
T3 construct: gene CDK17

The next experiment addresses T4, FLT3-autoinhibited (Homo sapiens, UniProt P36888).
T4 sequence (P36888 1-993): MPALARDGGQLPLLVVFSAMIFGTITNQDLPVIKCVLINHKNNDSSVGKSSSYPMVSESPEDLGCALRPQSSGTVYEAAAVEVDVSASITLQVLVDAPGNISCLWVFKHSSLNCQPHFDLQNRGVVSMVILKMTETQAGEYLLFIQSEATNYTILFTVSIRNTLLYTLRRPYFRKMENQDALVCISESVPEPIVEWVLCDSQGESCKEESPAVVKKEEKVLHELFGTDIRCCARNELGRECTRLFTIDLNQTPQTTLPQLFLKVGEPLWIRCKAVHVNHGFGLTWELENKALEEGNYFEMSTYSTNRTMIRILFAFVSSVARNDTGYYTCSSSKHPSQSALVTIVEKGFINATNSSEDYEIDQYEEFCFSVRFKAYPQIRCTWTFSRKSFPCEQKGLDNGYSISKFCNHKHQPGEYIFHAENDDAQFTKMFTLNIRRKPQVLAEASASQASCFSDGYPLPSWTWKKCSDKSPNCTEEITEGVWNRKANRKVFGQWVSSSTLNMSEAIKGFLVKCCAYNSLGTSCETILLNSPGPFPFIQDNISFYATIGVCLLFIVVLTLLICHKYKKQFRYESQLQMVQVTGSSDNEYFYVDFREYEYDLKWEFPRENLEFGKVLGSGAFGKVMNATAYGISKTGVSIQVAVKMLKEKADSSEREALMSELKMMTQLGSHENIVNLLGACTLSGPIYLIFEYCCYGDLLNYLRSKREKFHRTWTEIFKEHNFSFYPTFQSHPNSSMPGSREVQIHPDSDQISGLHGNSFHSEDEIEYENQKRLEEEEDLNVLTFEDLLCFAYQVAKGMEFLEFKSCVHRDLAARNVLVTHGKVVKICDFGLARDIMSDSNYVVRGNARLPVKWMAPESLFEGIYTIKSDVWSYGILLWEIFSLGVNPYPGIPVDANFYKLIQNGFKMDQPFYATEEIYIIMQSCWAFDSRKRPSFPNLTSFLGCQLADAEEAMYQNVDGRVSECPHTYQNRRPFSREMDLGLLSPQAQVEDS

The target in the next experiment is T5, ADCK3 (Homo sapiens, UniProt Q8NI60).
T5 construct: gene COQ8A

Where [1] appears, read: read-out: Rucaparib / %Ctrl @ 10000nM, binding competition, % of control.
Setting [2] is: read-out: Talazoparib (BMN 673) / %Ctrl @ 10000nM.
Where [3] appears, read: read-out: Niraparib (MK-4827) / %Ctrl @ 10000nM.
[4] abbreviates: read-out: Olaparib / %Ctrl @ 10000nM.

Chain of PIK3CA (P42336 whole entry): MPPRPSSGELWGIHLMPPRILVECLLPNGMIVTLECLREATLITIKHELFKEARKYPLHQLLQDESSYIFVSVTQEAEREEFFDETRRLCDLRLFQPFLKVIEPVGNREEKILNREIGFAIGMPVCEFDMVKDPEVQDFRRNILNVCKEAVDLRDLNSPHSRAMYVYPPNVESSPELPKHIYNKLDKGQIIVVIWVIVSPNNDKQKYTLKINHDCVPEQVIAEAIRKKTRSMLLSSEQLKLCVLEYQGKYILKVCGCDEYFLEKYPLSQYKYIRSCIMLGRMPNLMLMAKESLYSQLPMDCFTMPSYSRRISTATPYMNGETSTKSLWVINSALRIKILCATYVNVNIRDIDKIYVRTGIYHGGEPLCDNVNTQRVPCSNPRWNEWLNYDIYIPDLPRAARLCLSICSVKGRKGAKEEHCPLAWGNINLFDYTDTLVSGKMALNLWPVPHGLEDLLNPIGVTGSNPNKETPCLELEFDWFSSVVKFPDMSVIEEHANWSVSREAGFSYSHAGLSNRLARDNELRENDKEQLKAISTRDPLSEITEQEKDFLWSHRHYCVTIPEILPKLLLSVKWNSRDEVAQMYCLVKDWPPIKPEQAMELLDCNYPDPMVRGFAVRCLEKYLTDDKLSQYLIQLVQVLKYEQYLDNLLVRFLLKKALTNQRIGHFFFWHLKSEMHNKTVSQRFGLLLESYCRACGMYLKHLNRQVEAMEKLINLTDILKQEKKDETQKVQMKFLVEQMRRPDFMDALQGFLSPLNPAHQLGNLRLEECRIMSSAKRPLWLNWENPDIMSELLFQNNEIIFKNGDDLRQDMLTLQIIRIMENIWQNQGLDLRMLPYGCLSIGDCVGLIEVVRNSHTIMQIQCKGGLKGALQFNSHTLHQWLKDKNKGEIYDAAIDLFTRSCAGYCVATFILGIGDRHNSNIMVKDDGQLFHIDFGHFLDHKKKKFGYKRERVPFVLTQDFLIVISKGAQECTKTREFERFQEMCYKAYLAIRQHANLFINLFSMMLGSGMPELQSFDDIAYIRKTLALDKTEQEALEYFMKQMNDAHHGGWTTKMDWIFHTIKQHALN
Chain of MKNK1 (Q9BUB5 whole entry): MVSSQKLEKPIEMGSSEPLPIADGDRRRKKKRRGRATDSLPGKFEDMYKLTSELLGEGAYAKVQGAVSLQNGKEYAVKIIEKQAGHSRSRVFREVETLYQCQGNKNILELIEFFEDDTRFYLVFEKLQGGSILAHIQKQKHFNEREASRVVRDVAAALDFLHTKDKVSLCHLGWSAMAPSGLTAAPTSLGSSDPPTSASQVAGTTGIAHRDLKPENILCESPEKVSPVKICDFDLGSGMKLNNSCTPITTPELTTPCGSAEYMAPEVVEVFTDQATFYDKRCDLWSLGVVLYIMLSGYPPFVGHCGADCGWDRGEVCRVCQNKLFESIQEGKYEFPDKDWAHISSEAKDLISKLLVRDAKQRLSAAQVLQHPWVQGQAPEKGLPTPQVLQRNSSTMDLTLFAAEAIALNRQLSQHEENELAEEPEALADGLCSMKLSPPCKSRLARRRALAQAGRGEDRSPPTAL
Chain of FER (P16591 whole entry): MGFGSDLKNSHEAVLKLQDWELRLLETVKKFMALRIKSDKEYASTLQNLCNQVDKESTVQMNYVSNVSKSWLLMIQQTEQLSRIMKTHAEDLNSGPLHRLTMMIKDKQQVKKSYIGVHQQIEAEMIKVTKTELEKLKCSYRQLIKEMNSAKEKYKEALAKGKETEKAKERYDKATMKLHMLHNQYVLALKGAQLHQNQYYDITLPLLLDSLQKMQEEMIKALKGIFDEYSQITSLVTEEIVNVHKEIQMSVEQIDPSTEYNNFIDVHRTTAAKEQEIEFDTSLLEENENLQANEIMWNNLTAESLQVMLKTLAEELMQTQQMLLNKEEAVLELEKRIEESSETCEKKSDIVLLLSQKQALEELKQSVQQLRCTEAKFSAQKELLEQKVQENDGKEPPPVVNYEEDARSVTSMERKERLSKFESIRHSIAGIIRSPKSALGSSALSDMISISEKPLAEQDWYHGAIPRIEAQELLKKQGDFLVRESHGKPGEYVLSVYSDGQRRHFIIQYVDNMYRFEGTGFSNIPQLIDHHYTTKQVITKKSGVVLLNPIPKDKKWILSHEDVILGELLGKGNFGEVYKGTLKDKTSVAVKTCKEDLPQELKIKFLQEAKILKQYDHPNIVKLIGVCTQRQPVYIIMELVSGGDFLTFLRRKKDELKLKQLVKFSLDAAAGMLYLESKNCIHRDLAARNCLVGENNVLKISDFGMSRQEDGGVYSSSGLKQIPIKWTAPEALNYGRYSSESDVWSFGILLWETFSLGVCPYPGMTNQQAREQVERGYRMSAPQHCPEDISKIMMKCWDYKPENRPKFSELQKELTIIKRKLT
T5 sequence (Q8NI60 whole entry): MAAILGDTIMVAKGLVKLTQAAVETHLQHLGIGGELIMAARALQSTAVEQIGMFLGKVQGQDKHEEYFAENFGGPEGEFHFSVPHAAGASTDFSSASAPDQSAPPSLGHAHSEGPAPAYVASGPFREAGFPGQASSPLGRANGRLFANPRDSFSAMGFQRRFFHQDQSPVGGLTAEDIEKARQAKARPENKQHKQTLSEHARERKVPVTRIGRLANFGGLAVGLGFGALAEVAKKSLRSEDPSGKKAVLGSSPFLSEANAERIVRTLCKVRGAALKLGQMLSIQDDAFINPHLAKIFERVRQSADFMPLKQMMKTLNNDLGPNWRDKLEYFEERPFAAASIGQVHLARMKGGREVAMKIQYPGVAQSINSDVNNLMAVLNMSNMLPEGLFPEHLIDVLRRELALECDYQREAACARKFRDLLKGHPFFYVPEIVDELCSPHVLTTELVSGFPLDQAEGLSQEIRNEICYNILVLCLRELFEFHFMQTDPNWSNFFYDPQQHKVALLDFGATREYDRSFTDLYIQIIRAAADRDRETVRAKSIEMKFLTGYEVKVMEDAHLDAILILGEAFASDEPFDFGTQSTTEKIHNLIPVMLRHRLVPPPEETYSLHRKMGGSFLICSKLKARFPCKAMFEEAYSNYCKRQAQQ
T2 sequence (Q16288 whole entry): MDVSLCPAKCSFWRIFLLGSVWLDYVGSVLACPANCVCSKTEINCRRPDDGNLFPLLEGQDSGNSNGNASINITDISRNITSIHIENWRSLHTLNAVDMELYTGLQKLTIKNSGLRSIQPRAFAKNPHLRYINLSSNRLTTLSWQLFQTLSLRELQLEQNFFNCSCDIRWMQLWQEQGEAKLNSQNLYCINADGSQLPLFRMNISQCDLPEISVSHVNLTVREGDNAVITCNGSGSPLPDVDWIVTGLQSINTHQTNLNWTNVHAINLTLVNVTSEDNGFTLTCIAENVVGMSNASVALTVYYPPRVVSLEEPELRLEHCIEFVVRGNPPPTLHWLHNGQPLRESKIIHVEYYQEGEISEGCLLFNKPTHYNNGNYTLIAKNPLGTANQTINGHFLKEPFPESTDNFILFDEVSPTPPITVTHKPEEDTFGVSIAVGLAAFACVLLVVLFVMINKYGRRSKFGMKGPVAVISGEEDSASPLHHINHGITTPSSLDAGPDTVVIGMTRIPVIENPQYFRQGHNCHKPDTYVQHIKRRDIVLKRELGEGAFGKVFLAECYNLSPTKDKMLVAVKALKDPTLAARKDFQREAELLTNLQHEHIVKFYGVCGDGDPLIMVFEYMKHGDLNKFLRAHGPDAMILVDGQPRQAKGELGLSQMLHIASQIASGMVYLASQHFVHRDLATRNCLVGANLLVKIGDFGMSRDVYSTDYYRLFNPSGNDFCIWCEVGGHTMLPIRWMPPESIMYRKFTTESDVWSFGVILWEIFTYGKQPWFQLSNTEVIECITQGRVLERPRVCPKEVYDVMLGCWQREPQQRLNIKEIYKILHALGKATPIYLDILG
Chain of CHEK2 (O96017 whole entry): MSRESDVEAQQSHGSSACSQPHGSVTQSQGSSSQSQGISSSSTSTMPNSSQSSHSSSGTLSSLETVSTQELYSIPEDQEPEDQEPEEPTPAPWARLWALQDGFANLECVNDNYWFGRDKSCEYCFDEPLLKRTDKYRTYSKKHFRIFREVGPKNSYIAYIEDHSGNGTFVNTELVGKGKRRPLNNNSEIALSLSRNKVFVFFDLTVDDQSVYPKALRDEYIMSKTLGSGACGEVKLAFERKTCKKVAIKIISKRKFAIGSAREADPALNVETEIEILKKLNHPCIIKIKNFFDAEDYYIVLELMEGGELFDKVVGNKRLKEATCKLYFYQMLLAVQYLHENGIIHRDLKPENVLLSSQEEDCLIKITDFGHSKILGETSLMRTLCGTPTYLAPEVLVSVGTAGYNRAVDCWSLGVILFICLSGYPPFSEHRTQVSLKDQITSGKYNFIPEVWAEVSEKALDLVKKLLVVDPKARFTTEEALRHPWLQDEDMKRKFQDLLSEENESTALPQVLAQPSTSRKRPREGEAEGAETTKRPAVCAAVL
T3 sequence (Q00537 whole entry): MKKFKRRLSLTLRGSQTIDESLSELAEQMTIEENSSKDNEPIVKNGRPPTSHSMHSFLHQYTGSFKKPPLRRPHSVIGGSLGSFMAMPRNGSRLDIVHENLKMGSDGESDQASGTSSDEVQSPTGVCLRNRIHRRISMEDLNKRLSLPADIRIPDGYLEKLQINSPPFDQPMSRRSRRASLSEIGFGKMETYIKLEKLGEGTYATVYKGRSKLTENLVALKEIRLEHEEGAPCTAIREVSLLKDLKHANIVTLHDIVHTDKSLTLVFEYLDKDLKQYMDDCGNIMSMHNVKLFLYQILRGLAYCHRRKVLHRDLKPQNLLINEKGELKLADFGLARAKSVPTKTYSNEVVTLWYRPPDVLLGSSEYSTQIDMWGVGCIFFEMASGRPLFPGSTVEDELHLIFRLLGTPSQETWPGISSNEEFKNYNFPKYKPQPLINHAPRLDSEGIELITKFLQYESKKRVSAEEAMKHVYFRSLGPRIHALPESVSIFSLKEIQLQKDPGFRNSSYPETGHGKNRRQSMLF

Take `CNCc1ccc(-c2[nH]c3cc(F)cc4c3c2CCNC4=O)cc1` [Rucaparib]: the percent of control binding at 10 µM at FER (setting [1]) turned out to be 95%; on MYLK (setting [1]) it was 34%; on SGK2 (setting [1]) it was 78%; on TRKC (setting [1]) it was 88%; on PCTK2 (setting [1]) it was 54%; on PIK3CA (setting [1]) it was 91%. The percent of control binding at 10 µM was 69% on ADCK3 (setting [1]), 76% on CHEK2 (setting [1]) and 97% at MKNK1 (setting [1]). Further, the “Rucaparib / %Ctrl @ 10000nM” value at FLT3-autoinhibited (binding competition, % of control) is 93%.

As to `Cn1ncnc1[C@H]1c2n[nH]c(=O)c3cc(F)cc(c23)N[C@@H]1c1ccc(F)cc1` [Talazoparib], the percent of control binding at 10 µM at FER (setting [2]) was 94%; at MYLK (setting [2]), 77%; at SGK2 (setting [2]), 89%; on TRKC (setting [2]) it was 100%; at PCTK2 (setting [2]), 94%; on FLT3-autoinhibited (setting [2]) it was 100%. Moreover, the percent of control binding at 10 µM on PIK3CA (setting [2]) came to 59%; on ADCK3 (setting [2]), 100%; on CHEK2 (setting [2]) it was 93%; at MKNK1 (setting [2]) it was 100%.

Turning to `NC(=O)c1cccc2cn(-c3ccc([C@@H]4CCCNC4)cc3)nc12` [Niraparib], the percent of control binding at 10 µM at FER (setting [3]) was determined as 93%; on MYLK (setting [3]), 73%; at SGK2 (setting [3]), 96%; at TRKC (setting [3]), 95%; on PCTK2 (setting [3]), 73%; on FLT3-autoinhibited (setting [3]) it was 84%. Also, the percent of control binding at 10 µM at PIK3CA (setting [3]) was found to be 100%; at ADCK3 (setting [3]), 57%; at CHEK2 (setting [3]) it was 89%; at MKNK1 (setting [3]), 100%.

Turning to `O=C(c1cc(Cc2n[nH]c(=O)c3ccccc23)ccc1F)N1CCN(C(=O)C2CC2)CC1` [Olaparib], the percent of control binding at 10 µM amounted to 100% at FER (setting [4]); 75% at MYLK (setting [4]); 99% on SGK2 (setting [4]); 92% on TRKC (setting [4]); 100% at PCTK2 (setting [4]); 87% on FLT3-autoinhibited (setting [4]). The percent of control binding at 10 µM at PIK3CA (setting [4]) was determined as 87%; at ADCK3 (setting [4]), 99%; at CHEK2 (setting [4]), 94%; on MKNK1 (setting [4]) it was 82%.
